Test results as given in PMC5218480 (PLoS ONE, 2017).

Test system: MV-4-11 cells
Assay: Gene expression microarray analysis (Affymetrix PrimeView) and GSEA
Type: cell-based, human
Parameters: RFU PODN (11730768_x_at) / Fold change /veh PODN (11730768_x_at) / RFU LINC00158 (11744669_a_at) / Fold change /veh LINC00158 (11744669_a_at) / RFU DUSP10 (11751237_a_at) / Fold change /veh DUSP10 (11751237_a_at) / RFU ID3 (11757404_x_at) / Fold change /veh ID3 (11757404_x_at) / RFU PLEKHG5 (11737974_s_at) / Fold change /veh PLEKHG5 (11737974_s_at) / RFU LRRC4B (11730491_at) / Fold change /veh LRRC4B (11730491_at) / RFU GIMAP4 (11747438_a_at) / Fold change /veh GIMAP4 (11747438_a_at) / RFU KRT8 (11758183_x_at) / Fold change /veh KRT8 (11758183_x_at) / RFU CNN1 (11734310_a_at) / Fold change /veh CNN1 (11734310_a_at) / RFU VPS37D (11726825_at) / Fold change /veh VPS37D (11726825_at) / RFU C10orf10 (11716522_x_at) / Fold change /veh C10orf10 (11716522_x_at) / RFU KIR2DL2 /// KIR2DL4 /// KIR2DL5A /// KIR2DL5B /// KIR2DS1 /// KIR2DS2 /// KIR2DS3 /// KIR2DS4 /// KIR3DL3 /// KIR3DL3 /// KIR3DS1 (11738374_at) / Fold change /veh KIR2DL2 /// KIR2DL4 /// KIR2DL5A /// KIR2DL5B /// KIR2DS1 /// KIR2DS2 /// KIR2DS3 /// KIR2DS4 /// KIR3DL3 /// KIR3DL3 /// KIR3DS1 (11738374_at) / RFU C1QL1 (11718748_at) / Fold change /veh C1QL1 (11718748_at) / RFU TMPRSS4 (11747572_a_at) / Fold change /veh TMPRSS4 (11747572_a_at) / RFU HAMP (11756126_x_at) / Fold change /veh HAMP (11756126_x_at) / RFU RNFT2 (11725882_a_at) / Fold change /veh RNFT2 (11725882_a_at) / RFU NR4A2 (11747474_a_at) / Fold change /veh NR4A2 (11747474_a_at) / RFU ABCC12 (11746883_a_at) / Fold change /veh ABCC12 (11746883_a_at) / RFU TMEM136 (11760407_x_at) / Fold change /veh TMEM136 (11760407_x_at) / RFU CLDN22 /// WWC2 (11732394_at) / Fold change /veh CLDN22 /// WWC2 (11732394_at) / RFU HLA-DPB1 (11760878_x_at) / Fold change /veh HLA-DPB1 (11760878_x_at) / RFU SPINT1 (11716480_a_at) / Fold change /veh SPINT1 (11716480_a_at) / RFU GAP43 (11754022_s_at) / Fold change /veh GAP43 (11754022_s_at) / RFU A4GNT (11735810_at) / Fold change /veh A4GNT (11735810_at) / RFU PRB3 (11715151_x_at) / Fold change /veh PRB3 (11715151_x_at) / RFU TUBB4B (11761932_at) / Fold change /veh TUBB4B (11761932_at) / RFU CAPN14 (11732068_a_at) / Fold change /veh CAPN14 (11732068_a_at) / RFU TMCC2 (11721928_a_at) / Fold change /veh TMCC2 (11721928_a_at) / RFU IRGQ (11745062_a_at) / Fold change /veh IRGQ (11745062_a_at) / RFU FAM174B (11720279_a_at) / Fold change /veh FAM174B (11720279_a_at) / RFU TMPRSS4 (11748680_a_at) / Fold change /veh TMPRSS4 (11748680_a_at) / RFU FAM212B (11763350_a_at) / Fold change /veh FAM212B (11763350_a_at) / RFU PLEKHG5 (11743358_a_at) / Fold change /veh PLEKHG5 (11743358_a_at) / RFU ZSCAN30 (11745921_a_at) / Fold change /veh ZSCAN30 (11745921_a_at) / RFU CMKLR1 (11741424_a_at) / Fold change /veh CMKLR1 (11741424_a_at) / RFU LOC101060620 /// MAPK8IP1 (11723275_at) / Fold change /veh LOC101060620 /// MAPK8IP1 (11723275_at) / RFU SPTSSB (11747773_x_at) / Fold change /veh SPTSSB (11747773_x_at) / RFU PRSS12 (11739890_at) / Fold change /veh PRSS12 (11739890_at) / RFU BIN1 (11741810_x_at) / Fold change /veh BIN1 (11741810_x_at) / RFU WNT11 (11732464_a_at) / Fold change /veh WNT11 (11732464_a_at) / RFU C10orf10 (11716521_a_at) / Fold change /veh C10orf10 (11716521_a_at) / RFU C5orf56 (11738089_at) / Fold change /veh C5orf56 (11738089_at) / RFU CYB561 (11721691_x_at) / Fold change /veh CYB561 (11721691_x_at) / RFU ANKRD19P (11752326_a_at) / Fold change /veh ANKRD19P (11752326_a_at) / RFU OR2T12 /// OR2T33 /// OR2T8 (11738714_s_at) / Fold change /veh OR2T12 /// OR2T33 /// OR2T8 (11738714_s_at) / RFU VCAN (11748164_a_at) / Fold change /veh VCAN (11748164_a_at) / RFU JSRP1 (11732532_at) / Fold change /veh JSRP1 (11732532_at) / RFU KRTAP10-11 (11738290_x_at) / Fold change /veh KRTAP10-11 (11738290_x_at) / RFU MYO3A (11730013_a_at) / Fold change /veh MYO3A (11730013_a_at) / RFU EBF3 (11725865_a_at) / Fold change /veh EBF3 (11725865_a_at) / RFU CAMK2N1 (11719241_x_at) / Fold change /veh CAMK2N1 (11719241_x_at) / RFU C5orf56 (11738088_a_at) / Fold change /veh C5orf56 (11738088_a_at) / RFU OLFML3 (11715873_a_at) / Fold change /veh OLFML3 (11715873_a_at) / RFU LOC100653217 /// NTM (11731650_a_at) / Fold change /veh LOC100653217 /// NTM (11731650_a_at) / RFU MAPK11 (11762145_a_at) / Fold change /veh MAPK11 (11762145_a_at) / RFU FIZ1 (11724087_x_at) / Fold change /veh FIZ1 (11724087_x_at) / RFU OASL (11726364_x_at) / Fold change /veh OASL (11726364_x_at) / RFU SOX15 (11748057_x_at) / Fold change /veh SOX15 (11748057_x_at) / RFU CD79A (11719716_a_at) / Fold change /veh CD79A (11719716_a_at) / RFU HIST1H1D (11736915_at) / Fold change /veh HIST1H1D (11736915_at) / RFU CASKIN2 (11723855_a_at) / Fold change /veh CASKIN2 (11723855_a_at) / RFU LOC730098 (11760151_x_at) / Fold change /veh LOC730098 (11760151_x_at) / RFU OR4N2 (11742367_at) / Fold change /veh OR4N2 (11742367_at) / RFU PRRT2 (11749266_a_at) / Fold change /veh PRRT2 (11749266_a_at) / RFU SNX32 (11753110_a_at) / Fold change /veh SNX32 (11753110_a_at) / RFU CDHR5 (11726645_a_at) / Fold change /veh CDHR5 (11726645_a_at) / RFU RCAN1 (11760418_a_at) / Fold change /veh RCAN1 (11760418_a_at) / RFU FAM167A (11723789_a_at) / Fold change /veh FAM167A (11723789_a_at) / RFU FAM26E (11764081_at) / Fold change /veh FAM26E (11764081_at) / RFU ISYNA1 (11749810_s_at) / Fold change /veh ISYNA1 (11749810_s_at) / RFU ACY1 (11761880_at) / Fold change /veh ACY1 (11761880_at) / RFU 11764098_at / Fold change /veh 11764098_at / RFU SAMD14 (11745864_x_at) / Fold change /veh SAMD14 (11745864_x_at) / RFU NPB (11741838_a_at) / Fold change /veh NPB (11741838_a_at) / RFU TMPRSS6 (11731388_a_at) / Fold change /veh TMPRSS6 (11731388_a_at) / RFU KRTAP10-2 (11738614_at) / Fold change /veh KRTAP10-2 (11738614_at) / RFU ARHGAP8 /// PRR5-ARHGAP8 (11727945_x_at) / Fold change /veh ARHGAP8 /// PRR5-ARHGAP8 (11727945_x_at) / RFU KRTAP5-7 /// NADSYN1 (11734609_at) / Fold change /veh KRTAP5-7 /// NADSYN1 (11734609_at) / RFU RASL12 (11751679_a_at) / Fold change /veh RASL12 (11751679_a_at) / RFU CDKN2B (11736163_a_at) / Fold change /veh CDKN2B (11736163_a_at) / RFU PRF1 (11729649_at) / Fold change /veh PRF1 (11729649_at) / RFU, ZNF638 /// ZNF638-IT1 / Fold change vs veh, ZNF638 /// ZNF638-IT1 / RFU, PANK3 / Fold change vs veh, PANK3 / RFU, SH3YL1 / Fold change vs veh, SH3YL1 / RFU, ZEB2 / Fold change vs veh, ZEB2 / RFU, NRIP1 / Fold change vs veh, NRIP1 / RFU, PTTG1IP / Fold change vs veh, PTTG1IP / RFU, CAPN2 / Fold change vs veh, CAPN2 / RFU, MED14 / Fold change vs veh, MED14 / RFU, SNORA58 / Fold change vs veh, SNORA58 / RFU, C1orf63 / Fold change vs veh, C1orf63 / RFU, LRRFIP1 / Fold change vs veh, LRRFIP1 / RFU, NDUFAF7 / Fold change vs veh, NDUFAF7 / RFU, SLC12A2 / Fold change vs veh, SLC12A2 / RFU, IBTK / Fold change vs veh, IBTK / RFU, ESF1 / Fold change vs veh, ESF1 / Fold change vs veh, TMEM50B / RFU, TAOK1 / Fold change vs veh, TAOK1 / RFU, ACBD3 / Fold change vs veh, ACBD3 / RFU, TMA16 / Fold change vs veh, TMA16 / RFU, RWDD3 / Fold change vs veh, RWDD3 / RFU, BCAT1 / Fold change vs veh, BCAT1 / RFU, EDEM3 / Fold change vs veh, EDEM3 / RFU, TMEM33 / Fold change vs veh, TMEM33 / RFU, WDR75 / Fold change vs veh, WDR75 / RFU, AHCTF1 / Fold change vs veh, AHCTF1 / RFU, TFRC / Fold change vs veh, TFRC / RFU, ZDHHC17 / Fold change vs veh, ZDHHC17 / RFU, NOM1 / Fold change vs veh, NOM1 / RFU, ARL8B / Fold change vs veh, ARL8B / RFU, ZBTB11 / Fold change vs veh, ZBTB11 / RFU, TAMM41 / Fold change vs veh, TAMM41 / RFU, KIAA1704 /// LOC100996395 / Fold change vs veh, KIAA1704 /// LOC100996395 / RFU, ING1 / Fold change vs veh, ING1 / RFU, TRMT61B / Fold change vs veh, TRMT61B / RFU, FUBP3 / Fold change vs veh, FUBP3 / RFU, TP53 / Fold change vs veh, TP53 / RFU, TNKS2 / Fold change vs veh, TNKS2 / RFU, ZFP14 / Fold change vs veh, ZFP14 / RFU, ACTR2 / Fold change vs veh, ACTR2 / RFU, PPP3R1 / Fold change vs veh, PPP3R1 / RFU, PIK3R1 / Fold change vs veh, PIK3R1 / RFU, HNRNPA1 / Fold change vs veh, HNRNPA1 / RFU, RNF170 / Fold change vs veh, RNF170 / RFU, ZNF28 / Fold change vs veh, ZNF28 / RFU, RNGTT / Fold change vs veh, RNGTT / RFU, OGT / Fold change vs veh, OGT / RFU, BRD1 / Fold change vs veh, BRD1 / RFU, MARS / Fold change vs veh, MARS / RFU, ZNF655 / Fold change vs veh, ZNF655 / RFU, FAHD1 / Fold change vs veh, FAHD1 / RFU, BDP1 / Fold change vs veh, BDP1 / RFU, LRRCC1 / Fold change vs veh, LRRCC1 / RFU, ARID1A / Fold change vs veh, ARID1A / RFU, ZNF146 / Fold change vs veh, ZNF146 / RFU, ZNF330 / Fold change vs veh, ZNF330 / RFU, GPN3 / Fold change vs veh, GPN3 / RFU, C9orf123 / Fold change vs veh, C9orf123 / RFU, N4BP2L2 / Fold change vs veh, N4BP2L2 / RFU, ARFIP1 / Fold change vs veh, ARFIP1 / RFU, FAM179B / Fold change vs veh, FAM179B / RFU, BCL10 / Fold change vs veh, BCL10 / RFU, UHRF1BP1L / Fold change vs veh, UHRF1BP1L / RFU, BET1 / Fold change vs veh, BET1 / RFU, CNOT2 / Fold change vs veh, CNOT2 / RFU, ZNF268 / Fold change vs veh, ZNF268 / Fold change vs veh, ZNF507 / RFU, DGCR2 / Fold change vs veh, DGCR2 / RFU, WDSUB1 / Fold change vs veh, WDSUB1 / Fold change vs veh, HSP90B1 /// MIR3652 / RFU, ADSS / Fold change vs veh, ADSS / RFU, GK / Fold change vs veh, GK / RFU, ZNF148 / Fold change vs veh, ZNF148 / RFU, TAF9 / Fold change vs veh, TAF9 / RFU, SLC1A5 / Fold change vs veh, SLC1A5 / RFU, SLMO2 / Fold change vs veh, SLMO2 / RFU, ABCC4 / Fold change vs veh, ABCC4 / RFU, LOC101060439 /// RAP1B / Fold change vs veh, LOC101060439 /// RAP1B / RFU, RFX7 / Fold change vs veh, RFX7 / RFU, GTPBP10 / Fold change vs veh, GTPBP10 / RFU, CNEP1R1 / Fold change vs veh, CNEP1R1 / RFU, BIVM-ERCC5 /// ERCC5 / Fold change vs veh, BIVM-ERCC5 /// ERCC5 / RFU, ILF3 / Fold change vs veh, ILF3 / RFU 11762660_at / Fold change /veh 11762660_at / RFU VCAN (11757783_s_at) / Fold change /veh VCAN (11757783_s_at) / RFU DDX43 (11728927_at) / Fold change /veh DDX43 (11728927_at) / RFU KRT8 (11758188_x_at) / Fold change /veh KRT8 (11758188_x_at) / RFU NKD1 (11759106_at) / Fold change /veh NKD1 (11759106_at) / RFU SRD5A1 (11742802_a_at) / Fold change /veh SRD5A1 (11742802_a_at) / RFU TPSAB1 /// TPSB2 (11721975_s_at) / Fold change /veh TPSAB1 /// TPSB2 (11721975_s_at) / RFU GSTM3 (11746129_a_at) / Fold change /veh GSTM3 (11746129_a_at) / RFU IL23R (11737362_x_at) / Fold change /veh IL23R (11737362_x_at) / RFU TMEM51 (11727254_a_at) / Fold change /veh TMEM51 (11727254_a_at) / RFU PIWIL2 (11732686_x_at) / Fold change /veh PIWIL2 (11732686_x_at) / RFU ORM1 (11744905_x_at) / Fold change /veh ORM1 (11744905_x_at) / RFU CCDC152 (11743942_at) / Fold change /veh CCDC152 (11743942_at) / RFU ECM1 (11717891_a_at) / Fold change /veh ECM1 (11717891_a_at) / RFU IL23R (11748794_a_at) / Fold change /veh IL23R (11748794_a_at) / RFU TNFAIP8L3 (11732012_x_at) / Fold change /veh TNFAIP8L3 (11732012_x_at) / RFU MBOAT4 (11741988_at) / Fold change /veh MBOAT4 (11741988_at) / RFU 11764193_at / Fold change /veh 11764193_at / RFU TMEM53 (11763286_at) / Fold change /veh TMEM53 (11763286_at) / RFU MAGEB2 (11727129_at) / Fold change /veh MAGEB2 (11727129_at) / RFU TMEM200A (11744735_a_at) / Fold change /veh TMEM200A (11744735_a_at) / RFU CCDC152 (11751479_a_at) / Fold change /veh CCDC152 (11751479_a_at) / RFU FAM211A (11726209_a_at) / Fold change /veh FAM211A (11726209_a_at) / RFU RGS16 (11746705_a_at) / Fold change /veh RGS16 (11746705_a_at) / RFU VCAN (11755009_s_at) / Fold change /veh VCAN (11755009_s_at) / RFU RHOB (11743442_s_at) / Fold change /veh RHOB (11743442_s_at) / RFU RGS16 (11720943_a_at) / Fold change /veh RGS16 (11720943_a_at) / RFU RGS16 (11720944_at) / Fold change /veh RGS16 (11720944_at) / RFU, VPS4B / Fold change vs veh, VPS4B / RFU, CREB1 / Fold change vs veh, CREB1 / RFU, DNAJC13 / Fold change vs veh, DNAJC13 / RFU, GNAQ / Fold change vs veh, GNAQ / RFU, CDK5R1 / Fold change vs veh, CDK5R1 / RFU, ZRANB3 / Fold change vs veh, ZRANB3 / RFU, CUL4A / Fold change vs veh, CUL4A / RFU, CCNY / Fold change vs veh, CCNY / RFU, UFL1 / Fold change vs veh, UFL1 / RFU, COG3 / Fold change vs veh, COG3 / RFU, DIAPH2 / Fold change vs veh, DIAPH2 / RFU, SKA2 / Fold change vs veh, SKA2 / RFU, AFF3 / Fold change vs veh, AFF3 / RFU, LMF1 / Fold change vs veh, LMF1 / RFU, IPO11 / Fold change vs veh, IPO11 / RFU, DFFB / Fold change vs veh, DFFB / RFU, FOXP1 / Fold change vs veh, FOXP1 / RFU, CARD8 / Fold change vs veh, CARD8 / RFU, STRN3 / Fold change vs veh, STRN3 / RFU, ADK / Fold change vs veh, ADK / RFU, RASSF2 / Fold change vs veh, RASSF2 / RFU, WIPF1 / Fold change vs veh, WIPF1 / RFU, LARP1B / Fold change vs veh, LARP1B / RFU, RASA1 / Fold change vs veh, RASA1 / RFU, RB1 / Fold change vs veh, RB1 / RFU, PPFIA1 / Fold change vs veh, PPFIA1 / RFU, MAT2A / Fold change vs veh, MAT2A / RFU, CCT5 / Fold change vs veh, CCT5 / RFU, WDR92 / Fold change vs veh, WDR92 / RFU, CUX1 / Fold change vs veh, CUX1 / RFU, TTC7A / Fold change vs veh, TTC7A / RFU, TMEM135 / Fold change vs veh, TMEM135 / RFU, DEPTOR / Fold change vs veh, DEPTOR / RFU, CPM / Fold change vs veh, CPM / RFU, DNAJB6 / Fold change vs veh, DNAJB6 / RFU, CACNA2D3 / Fold change vs veh, CACNA2D3 / RFU, DTX4 / Fold change vs veh, DTX4 / RFU, TFCP2 / Fold change vs veh, TFCP2 / RFU, GMCL1 /// GMCL1P1 / Fold change vs veh, GMCL1 /// GMCL1P1 / RFU, AEBP2 / Fold change vs veh, AEBP2 / RFU, SNHG1 /// SNORD22 /// SNORD25 /// SNORD26 /// SNORD27 /// SNORD28 /// SNORD29 /// SNORD31 / Fold change vs veh, SNHG1 /// SNORD22 /// SNORD25 /// SNORD26 /// SNORD27 /// SNORD28 /// SNORD29 /// SNORD31 / Fold change (Aza/veh), C12orf56 (ProbeSet 11735607_a_at) / Fold change (ACY-1035/veh), C12orf56 (ProbeSet 11735607_a_at) / Fold change (Aza/veh), FGFR1OP (ProbeSet 11751329_s_at) / Fold change (ACY-1035/veh), FGFR1OP (ProbeSet 11751329_s_at) / Fold change (Aza/veh), VPS36 (ProbeSet 11739960_a_at) / Fold change (ACY-1035/veh), VPS36 (ProbeSet 11739960_a_at) / RFU SYPL1 (11715823_x_at) / Fold change /veh SYPL1 (11715823_x_at) / RFU IGFBP7 (11715501_s_at) / Fold change /veh IGFBP7 (11715501_s_at) / RFU REEP3 (11722064_at) / Fold change /veh REEP3 (11722064_at) / RFU IGLL1 (11728026_x_at) / Fold change /veh IGLL1 (11728026_x_at): dose or concentration left out as unconfirmed
Conditions: MV-4-11 cells, 48 hours

Nc1ccc(-c2cccs2)cc1NC(=O)c1ccc2c(c1)cc(C1CC1)n2CCN1CCOCC1 [ACY-1035]
Fold change /veh PODN (11730768_x_at): 1.05
